According to US12357582B2, “Hydrophobic ion pairing and flash nanoprecipitation for formation of controlled-release nanocarrier formulations” (The Trustees of Princeton University, priority 2017, dated 2025):

What was measured:
[1] = API release from NCs by dialysis (BCA assay); format: physicochemical
Protocol: Drug concentrations were determined with the bicinchoninic acid (BCA) assay (Spectramax i3x, Molecular Devices) with absorbance measurements at 562 nm, using a standard curve of the same drug (unencapsulated) as the reference. API fractional release was determined by dialyzing NC sample in 100-fold 1×PBS. […] The drug concentration in each aliquot was determined by the BCA assay at 562 nm. The released fraction is the API concentration at each time point divided by the initial API concentration before dialysis (Eq. 2).
API release rates from NCs are a critical determinant of dosing frequency, in vivo active concentrations, and overall therapeutic effectiveness. The release rates of polymyxin B were assessed by enclosing NCs in an 8 kDa MWCO dialysis bag and diluting into a thousand-fold excess volume of PBS to simulate an “open sink” condition at room temperature. Encapsulated polymyxin within dialysis bags was measured over time, using the BCA assay, to determine the amount of API that had been released (FIGS. 7A, 7B, and 7C).

[2] = system: cells; test: Lysozyme activity after release (ability to lyse cells); format: biochemical
[3] = Particle size and polydispersity by dynamic light scattering; format: physicochemical; conditions: PCL5k-b-PEG5k NPs
[4] = Ion-pairing screening using gentamicin API; format: physicochemical; set-up: key to Reprecipitation: + details reprecipitation observed; − details no reprecipitation observed; key to Organic Dissolution: ++ details complete dissolution; + details non-complete dissolution; key to Precipitation: +++: + details qualitative observations of the amount of solid formed; ++: + details qualitative observations of the amount of solid formed; + details qualitative observations of the amount of solid formed; − details no solids formed; conditions: for Precipitation: gentamicin API mixed with IP in water; for Reprecipitation: gentamicin:IP organic solution diluted ten-fold in water; for Organic Dissolution: gentamicin:IP pellet in organic solvent (THF)
Protocol: (§1) The fifteen ion pairing (IP) reagents listed above were screened to assess if hydrophobic API salt forms would be formed and would precipitate from solution. Ion pair and API drug properties were calculated with Molinspiration software (Molinspiration Cheminformatics, Slovakia). APIs were dissolved in water at 5 mg mL^−1 concentration and mixed with IPs dissolved in water at varying concentrations to yield different API to IP ratios. The screening process determines whether a particular IP may be used with a given API for NC formation.
(§2) In the case of pre-ion pairing, API and IP are mixed in water to form a water-insoluble precipitate (referred to as an API:IP complex). The water is then removed, and the API:IP complex is dissolved into an organic solvent (along with a block copolymer) for use in the organic stream in FNP. In this case, the API:IP complex is treated as a component in the organic stream of normal FNP. The screening process for the pre-ion paired method FNP involves four sequential tests. • 1. The first test examines the solubility of the IP agent. IP is added to DI water at a concentration that would be required for a 1:1 API:IP charge ratio if the API were dissolved at 5 mg mL^−1. (In this text the ratios are presented as charge ratios of API:IP.) Substantial […] in water is required for successful ion pairing. • 2. The second test examines whether an in situ API:IP complex can be formed in a single step. For example, The second test examines whether solids precipitate upon mixing of the aqueous IP solution with an aqueous API solution. Alternatively, IP in an organic, but water miscible, solution is mixed against the aqueous API solution. The final solution is checked visually to see if precipitation has occurred. In this test, the IP solution is at a concentration such that mixing equal volumes of IP solution and API solution will form a 1:1 API to IP charge ratio. Four API:IP ratios are investigated: 200 μL API solution is mixed with 100 μL IP solution for a 1:0.5 charge ratio; 200 μL API solution is mixed with 200 μL IP solution for a 1:1 charge ratio; 200 μL API solution is mixed with 400 μL IP solution for a 1:2 charge ratio; and 200 μL API solution is mixed with 800 μL IP solution for a 1:4 charge ratio. • 3. The third test examines whether the API:IP complex can be solubilized in the organic phase for subsequent FNP NC formation. Pellets of the precipitate formed in the second test are tested to see if they are soluble in a water-miscible organic solvent such as tetrahydrofuran (THF) or more polar solvents such as dimethyl sulfoxide (DMSO) or methanol (MeOH). For example, if precipitates were formed in the second test, the mixture can be centrifuged at 20800 rcf for 20 minutes, and the aqueous supernatant can be removed in order to recover pelleted precipitate. 200 μL of organic solvent can be added to the pellet; the solution can then be mixed to determine whether the pellet dissolves. • 4. The final (fourth) test assesses if the hydrophobic API:IP complex will re-precipitates when mixed with water, e.g., upon FNP mixing with water as the antisolvent. The organic solvent containing API:IP from the third test is diluted ten-fold in water, and precipitate formation is examined. If a precipitate forms, then the construct is suitable for use in FNP. In Situ Ion Pairing
Several water-soluble counter ion salts IPs were chosen for this investigation to determine the physical properties of the counter ions required for successful complex formation (FIG. 3). A range of carboxylate and sulfonate salt IPs whose acid forms have pKa ranging 5 to −1.9 were tested, as well as salts with a wide range of solubilities and LogP values as high as 7.6 or as low as −4.92. API was dissolved at 5 mg mL^−1 in water in 1× volume, and rapidly mixed with 1× volume of dissolved IP to give a final mixture containing a 1:1 API:IP charge ratio. Mixtures were visually observed to assess if precipitates rapidly formed. […]

[5] = Ion-pairing screening using polymyxin B API; format: physicochemical; set-up: key to Reprecipitation: + details re-precipitation observed; − details no re-precipitation observed; key to Organic Dissolution: ++ details complete dissolution; + details non-complete dissolution; key to Precipitation: +++: + details qualitative observations of the amount of solid formed; ++: + details qualitative observations of the amount of solid formed; + details qualitative observations of the amount of solid formed; − details no solids formed; conditions: for precipitation upon mixing and NC formation: FIG. 4, polymyxin; for Precipitation: polymyxin B API mixed with IP in water; for Reprecipitation: polymyxin B:IP organic solution diluted ten-fold in water; for Organic Dissolution: polymyxin B:IP pellet in organic solvent (THF)
Protocol: as §1, §2
Several water-soluble counter ion salts IPs were chosen for this investigation to determine the physical properties of the counter ions required for successful complex formation (FIG. 3). A range of carboxylate and sulfonate salt IPs whose acid forms have pKa ranging 5 to −1.9 were tested, as well as salts with a wide range of solubilities and LogP values as high as 7.6 or as low as −4.92. API was dissolved at 5 mg mL^−1 in water in 1× volume, and rapidly mixed with 1× volume of dissolved IP to give a final mixture containing a 1:1 API:IP charge ratio. Mixtures were visually observed to assess if precipitates rapidly formed.

[6] = ambient temperature; cited from earlier work
[7] = OVA with at least one charge equivalent of quaternary ammonium surfactant

Molecule	Precipitation [4]	Precipitation [5]	Reprecipitation [5]	Organic Dissolution [5]	further results
Lysozyme [LYZ]					LYZ released by 14 days ([1]; NPs with OA, 1:2 charge ratio): 20%; LYZ released by 14 days ([1]; NPs with OA, 1:4 charge ratio): 10%; LYZ released by 14 days ([1]; NPs with SDS, 1:1 charge ratio): 50%; released LYZ with activity equal to LYZ that was never encapsulated ([2]; following release from NPs, over all formulations): up to 100%; released LYZ that was bioactive ([2]; paired 1:1 with DXS): 100%; released LYZ that was bioactive ([2]; paired 1:1 with OA): 100%; released LYZ that was bioactive ([2]; paired 1:1 with SDS): approximately 60%; released LYZ that was bioactive ([2]; paired 1:2 with DXS): approximately 60%; released LYZ that was bioactive ([2]; paired 1:2 with OA): 100%; released LYZ that was bioactive ([2]; paired 1:2 with SDS): < 10%; released LYZ that was bioactive ([2]; paired 1:4 with DXS): approximately 60%; released LYZ that was bioactive ([2]; paired 1:4 with OA): approximately 60%; released LYZ that was bioactive ([2]; paired 1:4 with SDS): < 10%; NP diameter ([3]; LYZ pre-formed with SDS or DXS): ~150 nm; PDI ([3]; LYZ pre-formed with SDS or DXS): < 0.2
CCCCCCCCCCCCOS(=O)(=O)[O-].[Na+] [Sodium Dodecyl Sulfate, sodium dodecyl sulfate]	+++	+++	+	++	Reprecipitation [4]: +; Organic Dissolution [4]: ++; precipitation upon mixing and NC formation [5]: rapid precipitation and successful NC formation
CCCCCCCCCCCCc1ccc(S(=O)(=O)[O-])cc1.[Na+] [Sodium Dodecylbenzenesulfonate, sodium dodecylbenezenesulfonate]	+++	+++	+	++	Reprecipitation [4]: +; Organic Dissolution [4]: ++; precipitation upon mixing and NC formation [5]: rapid precipitation and successful NC formation
CCCCCCCCCCCCCC(=O)[O-].[Na+] [Sodium Myristate, sodium myristate]	−	++			
CCCCCCCCS(=O)(=O)[O-].O.[Na+] [Sodium 1-Octanesulfonate Monohydrate, sodium 1-octanesulfonate monohydrate]	++	+++	−	++	Reprecipitation [4]: −; Organic Dissolution [4]: ++
Mastoparan 7 [MP7, reference compound]					characteristic release time (time for 50% release) ([1]; MP7, NPs are MP7:SDS 1:1 PCL5k-b-PEG5k): 2.9 h
CCCCCCCS(=O)(=O)[O-].[Na+] [Sodium 1-Heptanesulfonate, sodium 1-heptanesulfonate]	−	+	−	+	
O=S(=O)([O-])CCS(=O)(=O)[O-].[Na+].[Na+] [Sodium 1,2-Ethanedisulfonate, sodium 1,2-ethanesulfonate]	−	−			
CC1(C)C2CC[C@]1(CS(=O)(=O)O)C(=O)C2 [(1R)-(-)-10-Camphorsulfonic Acid, (1R)-(−)-10-camphorsulfonic acid]	−	−			
O=S(=O)([O-])c1ccc2ccccc2c1.[Na+] [Sodium 2-Naphthalenesulfonate, sodium 2-naphthalenesulfonate]	++	++	−	++	Reprecipitation [4]: −; Organic Dissolution [4]: ++
CCCCCCCCCCS(=O)(=O)[O-].[Na+] [Sodium 1-Decanesulfonate, sodium 1-decanesulfonate]	+++	+++	+	++	Reprecipitation [4]: +; Organic Dissolution [4]: ++
CCCCCCCC/C=C\CCCCCCCC(=O)[O-].[Na+] [Sodium Oleate, sodium oleate]	−	+++	+	++	precipitation upon mixing and NC formation [5]: rapid precipitation and successful NC formation
O=S(=O)(O)c1ccccc1 [Benzenesulfonic Acid Monohydrate, benzenesulfonic acid monohydrate]	−	−			
sodium deoxycholate	++	+++			
CCCCCCCCCC(=O)[O-].[Na+] [Sodium Decanoate, sodium decanoate]	+	++	−		
CCCCCC(=O)[O-].[Na+] [Sodium Hexanoate, Sodium hexanoate]	−	−			
CCCCCCCC/C=C\CCCCCCCC(=O)O [Oleic acid, oleic acid]					solubility in water [6]: ~3e-07 g/g
Ovalbumin (protein, UniProt P01012 2-386, looked up, anionic protein, 385 amino acid residues, 43,000 Da) Ovalbumin: GSIGAASMEFCFDVFKELKVHHANENIFYCPIAIMSALAMVYLGAKDSTRTQINKVVRFDKLPGFGDSIEAQCGTSVNVHSSLRDILNQITKPNDVYSFSLASRLYAEERYPILPEYLQCVKELYRGGLEPINFQTAADQARELINSWVESQTNGIIRNVLQPSSVDSQTAMVLVNAIVFKGLWEKAFKDEDTQAMPFRVTEQESKPVQMMYQIGLFRVASMASEKMKILELPFASGTMSMLVLLPDEVSGLEQLESIINFEKLTEWTSSNVMEERKIKVYLPRMKMEEKYNLTSVLMAMGITDVFSSSANLSGISSAESLKISQAVHAAHAEINEAGREVVGSAEAGVDAASVSEEFRADHPFLFCIKHIATNAVLFFGRCVSP					NP diameter [3, 7]: ~150 nm; PDI [3, 7]: < 0.2
